The target in the test is T1, MtMetAP1c (Mycobacterium tuberculosis, UniProt P9WK19).
T1 construct: gene map
Description: biochemical. Particulars: read-out: IC50 (μM) / MtMetAP1c + 100 μM CoCl2.

Structures are written as SMILES.

T1 sequence (P9WK19 whole entry): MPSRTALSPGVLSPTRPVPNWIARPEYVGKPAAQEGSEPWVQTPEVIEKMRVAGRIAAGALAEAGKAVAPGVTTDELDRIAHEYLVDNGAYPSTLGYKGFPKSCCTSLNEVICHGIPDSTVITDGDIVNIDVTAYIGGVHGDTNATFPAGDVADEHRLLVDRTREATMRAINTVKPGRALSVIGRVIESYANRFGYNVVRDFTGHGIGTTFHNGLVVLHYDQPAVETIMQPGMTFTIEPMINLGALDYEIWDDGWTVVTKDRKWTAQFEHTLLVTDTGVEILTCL

As to `Cc1nc(-c2ccccn2)nc(N(C)Cc2ccccc2)c1Cl` [OJT008, N-benzyl-5-chloro-N,6-dimethyl-2-pyridin-2-ylpyrimidin-4-amine], the IC50 turned out to be 11.8 ± 1.3 µM.

For the origin of these results see PMC10742973 (International Journal of Molecular Sciences, 2023).
